From the supplement of paper PMC10307832

Each cell line was assayed with C[C@@H](Oc1cc(-c2cnn(C3CCNCC3)c2)cnc1N)c1c(Cl)ccc(F)c1Cl [Crizotinib] + COc1cccc2cc(-c3nc([C@H]4CC[C@H](C(=O)O)CC4)n4ncnc(N)c34)[nH]c12 [OSI-027] (partner 0.5 µM) (assay: relative viability (nuclei count vs DMSO), 5 days (fraction); higher = more cells survive). Conditions: first compound 0.01 µM.
How it was run: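 Cells from lung cancer lines were seeded into 1536-well plates and, one day later, dosed by pin tool. Treatments were either a single drug or a fixed dose of an anchor drug with five library-drug doses (not always all listed) in √10 steps. After 5 days, nuclei were stained in a one-step fixation (final 0.05% Triton X-100, 1% formaldehyde, 1 ug/ml Hoechst) and counted on 4× images, and relative viability is the treated-to-vehicle nuclei ratio, as the median of duplicate plates.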

In order of rising relative viability:
1. NCI-H520  0.272
2. NCI-H838  0.348
3. NCI-H2023  0.354
4. NCI-H1355  0.358
5. NCI-H2347  0.375
6. NCI-H1944  0.396
7. NCI-H2087  0.442
8. RERF-LC-KJ  0.518
9. NCI-H460  0.536
10. NCI-H1651  0.546
11. NCI-H2085  0.552
12. NCI-H1650  0.554
13. NCI-H1915  0.563
14. NCI-H1993  0.564
15. NCI-H650  0.587
16. NCI-H1734  0.592
17. NCI-H1395  0.601
18. NCI-H661  0.606
19. NCI-H2228  0.607
20. NCI-H358  0.628
21. NCI-H2405  0.636
22. NCI-H2126  0.638
23. NCI-H1755  0.678
24. NCI-H2009  0.704
25. NCI-H596  0.715
26. NCI-H1975  0.72
27. NCI-H647  0.736
28. NCI-H1437  0.758
29. NCI-H2170  0.775
30. PC-3 [JPC-3]  0.786
31. NCI-H1666  0.8
32. PC-14  0.826
33. NCI-H3122  0.896

Same assay, conditions: first compound 0.03162 µM

In order of falling relative viability:
1. NCI-H2085  0.985
2. NCI-H460  0.931
3. NCI-H3122  0.909
4. NCI-H1437  0.901
5. PC-14  0.898
6. NCI-H358  0.897
7. NCI-H1666  0.893
8. NCI-H596  0.857
9. NCI-H1651  0.852
10. NCI-H2170  0.839
11. NCI-H1975  0.812
12. PC-3 [JPC-3]  0.802
13. NCI-H661  0.74
14. NCI-H1755  0.716
15. NCI-H2126  0.7
16. NCI-H1395  0.631
17. NCI-H1915  0.63
18. NCI-H1650  0.624
19. RERF-LC-KJ  0.619
20. NCI-H2009  0.611
21. NCI-H2087  0.611
22. NCI-H1734  0.606
23. NCI-H2405  0.605
24. NCI-H2228  0.563
25. NCI-H727  0.561
26. NCI-H647  0.516
27. NCI-H650  0.508
28. NCI-H1993  0.507
29. NCI-H1355  0.44
30. NCI-H2023  0.438
31. NCI-H1944  0.421
32. NCI-H838  0.369
33. NCI-H2347  0.324
34. NCI-H520  0.295

Same assay, conditions: first compound 0.1 µM

In order of falling relative viability:
1. NCI-H727  0.774
2. NCI-H661  0.771
3. NCI-H596  0.693
4. NCI-H358  0.673
5. NCI-H647  0.641
6. NCI-H1395  0.623
7. NCI-H650  0.544
8. NCI-H460  0.479
9. NCI-H838  0.409
10. NCI-H1355  0.394
11. NCI-H520  0.24
